15 compounds from patent US20230009608A1, “GRK2 INHIBITORS AND USES THEREOF” (Cygnal Therapeutics, Inc., priority 2020, published 2023) can be followed below.

As usually defined, the IC50 is the midpoint of a concentration-inhibition curve. In general, GI50 refers to the concentration at which growth is held to half of that of the control.

The structures appear in SMILES notation.

For test [1], the target named is T1, GRK2 (Homo sapiens, UniProt P25098).
T1 construct: purchased SignalChem A14-10G
T1 sequence (P25098 1-689): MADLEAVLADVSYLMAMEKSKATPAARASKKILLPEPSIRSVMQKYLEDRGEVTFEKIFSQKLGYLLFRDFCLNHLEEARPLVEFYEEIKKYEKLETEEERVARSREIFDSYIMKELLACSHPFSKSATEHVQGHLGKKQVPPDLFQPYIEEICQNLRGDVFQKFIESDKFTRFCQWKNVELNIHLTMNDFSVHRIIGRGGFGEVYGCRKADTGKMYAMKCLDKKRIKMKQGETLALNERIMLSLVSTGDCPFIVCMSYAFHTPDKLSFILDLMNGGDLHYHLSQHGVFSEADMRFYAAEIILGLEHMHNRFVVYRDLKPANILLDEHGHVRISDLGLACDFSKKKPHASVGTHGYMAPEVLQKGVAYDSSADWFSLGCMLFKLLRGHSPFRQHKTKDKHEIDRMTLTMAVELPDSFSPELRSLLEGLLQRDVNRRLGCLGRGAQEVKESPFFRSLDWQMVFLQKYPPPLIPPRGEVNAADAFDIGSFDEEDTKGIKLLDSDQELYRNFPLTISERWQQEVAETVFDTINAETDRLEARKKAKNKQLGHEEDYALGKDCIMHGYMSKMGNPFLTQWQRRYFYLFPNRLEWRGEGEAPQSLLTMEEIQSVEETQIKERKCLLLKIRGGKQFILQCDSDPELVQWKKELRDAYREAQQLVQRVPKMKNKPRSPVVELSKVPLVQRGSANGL
Kind of test: GRK2 Inhibition Assay (TR-FRET, Example 7). The settings on record: 1 nM GRK2, 7 μM ATP, TR-FRET; read-out: GRK2 IC50 (nM) (Example 7). The class given is biochemical. Summed up: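 GRK2 at 1 nM preincubated 30 min with compound, then reacted 90 min at room temperature with 7 μM ATP and 50 nM ULight-TopoIIα in HEPES/MgCl2/DTT buffer. Phosphorylation detected by TR-FRET after Eu anti-TopoIIα and EDTA addition, 60 min.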

The target of test [2] is T1, GRK2. Nature of the test: ADPGlo GRK2 Inhibition Assay (Example 8). To be noted: 7.5 nM GRK2, 10 μM ATP, ADP-Glo; read-out: GRK2 IC50 (nM) (Example 8). It counts as biochemical. Summed up:
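GRK2 (15 nM 2× enzyme solution) was preincubated 15 min with compound, then reacted 180 min at room temperature with 2× mix of 20 μM ATP plus GRKtide in HEPES pH 7.5, MgCl2, Tween-20, DTT. ADP was detected by ADP-Glo luminescence. Percent inhibition was normalised to enzyme and no-enzyme controls, with dose-response curves from threefold dilutions starting at 100 μM.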

The subject of test [3] is PAXF1657 control empty vector cell line. Kind of test: 7-day proliferation assay, PAXF1657 control empty vector cell line (Example 9). To be noted: 168 h; 7-day compound treatment, CellTiter-Glo. It counts as cell-based. Summed up:
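PAXF1657 isogenic lines (GRK2-overexpressing vs empty vector; CRISPR GRK2 knockout vs non-targeting control clones) seeded 500 cells/well in RPMI1640/10% FBS and treated next day with 10-point dilutions, 30 μM-0.0002 μM final, 0.3% DMSO. Media with compound refreshed after 3 days; viability read by CellTiter-Glo luminescence at day 7.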

Test [4] deals with PAXF1657 cell line stably overexpressing GRK2. Nature of the test: 7-day proliferation assay, PAXF1657 stably overexpressing GRK2 (Example 9). The class given is cell-based. To be noted: for GI50: 168 h, 7-day compound treatment, CellTiter-Glo; for Ratio GRK2 overexpressing cells/Empty vector cells: GI50 in GRK2 overexpressing PAXF1657 over GI50 in empty vector PAXF1657. How it is done: In order to identify compounds specific for GRK2, we generated two isogenic cell line pairs of the pancreatic cancer cell line PAXF1657, a pair of cells stably overexpressing GRK2 cDNA or the control empty vector and a cell line pair of PAXF1657 GRK2 knockout clonal cells versus non-targeting control clonal cells.
Proliferation Assay: Cellular anti-proliferative activity of compounds was assessed by using the pancreatic cancer cell line, PAXF1657, stably overexpressing GRK2 cDNA or the control empty vector, as well as the parental urinary bladder cancer cell line, 5637. In addition, we also took advantage of GRK2 knockout cell lines that were generated via CRISPR. Cell lines were seeded into tissue culture treated, white-walled, 96-well plates at a density of 500 cells/well in RPMI1640 media supplemented with 10% H.I. FBS and penicillin/streptomycin. Plates were incubated overnight at 37° C., 5% CO2 to allow cells to adhere to the wells. GRK2 inhibitors were added to the cells using a 10-point dilution series with a final concentration ranging from 30 μM-0.0002 μM in 0.3% DMSO. At the time of compound addition, a set of plates, that were not treated with compounds, were collected and cell viability was measured using CellTiter-Glo (Promega). CellTiter-Glo reagent was added to the designed plates and luminescence was measuring using a Biotek Synergy plate reader. The compound treated cells were incubated for 3 days at 37° C., 5% CO2. The media was then aspirated from each well and replaced with fresh media containing GRK2 inhibitors. The compound treated cells were then incubated for an additional 4 days at 37° C., 5% CO2. Cell viability was assessed and at end of the 7-day compound treatment by CellTiterGlo.
(In general: Cellular ATP, detected with luciferase, serves as a proxy for viable cell number.)

For `Cn1c(CNc2cccc(C(=O)NCc3cccc4c3OCC4)c2)nnc1-c1ccncn1` [compound 1, N-((2,3-dihydrobenzofuran-7-yl)methyl)-3-(((4-methyl-5-(pyrimidin-4-yl)-4H-1,2,4-triazol-3-yl)methyl)amino)benzamide], the values for the IC50 in test [1] and in test [2] were 4.7 nM and 27 nM, respectively. Further, the GI50 in test [3] was found to be 1.97 µM; in test [4] it was 24.3 µM. For the same compound, the “Ratio GRK2 overexpressing cells/Empty vector cells” value in test [4] is given as 12.34.

As for `Cn1c(CNc2cccc(C(=O)NCc3cccc(F)c3)c2)nnc1-c1ccncn1` [compound 2], the results for the IC50 in test [1] and in test [2] were 56 nM and 49 nM, respectively. For the same compound, the results for the GI50 in test [3] and in test [4] were 1.79 µM and 20.5 µM, respectively. Moreover, in test [4], the “Ratio GRK2 overexpressing cells/Empty vector cells” value worked out at 11.46.

As for `Cn1c(CNc2cccc(C(=O)N[C@H]3CCOc4ccccc43)c2)nnc1-c1ccncn1` [compound 3], the results for the IC50 in test [1] and in test [2] were 10 nM and 18 nM, respectively. For the same compound, the GI50 in test [3] was determined as 1.16 µM; in test [4], 8.61 µM. For the same compound, the “Ratio GRK2 overexpressing cells/Empty vector cells” value in test [4] was 7.42.

For the compound `Cn1c(CNc2cccc(C(=O)NCc3cccnc3C(F)(F)F)c2)nnc1-c1ccncn1` [compound 4], the figures for the IC50 in test [1] and in test [2] were 28 nM and 36 nM, respectively. Moreover, the GI50 in test [3] was 0.79 µM; in test [4] it was 4.59 µM. The “Ratio GRK2 overexpressing cells/Empty vector cells” value in test [4] was 5.79.

For the compound `COc1ccc(CNC(=O)c2cccc(NCc3nnc(-c4ccncn4)n3C)c2)c(F)c1` [compound 5], the IC50 is 5.4 nM in test [1] and 19 nM in test [2]. For the same compound, the GI50 in test [3] was found to be 1.51 µM; in test [4], 10.3 µM. Besides, the “Ratio GRK2 overexpressing cells/Empty vector cells” value in test [4] was determined as 6.79.

Turning to `COc1cccc(OC)c1CNC(=O)c1cccc(NCc2nnc(-c3ccncn3)n2C)c1` [compound 6], the results for the IC50 in test [1] and in test [2] were 19 nM and 44 nM, respectively. Moreover, the GI50 in test [3] was determined as 2.08 µM; in test [4] it was 12.5 µM. For the same compound, the “Ratio GRK2 overexpressing cells/Empty vector cells” value in test [4] stood at 6.01.

Regarding `CCOc1ccccc1CNC(=O)c1cccc(NCc2nnc(-c3ccncn3)n2C)c1` [compound 7], the IC50 in test [1] was determined as 33 nM; in test [2], 30 nM. The GI50 in test [3] amounted to 3.32 µM; in test [4] it was 14.2 µM. The “Ratio GRK2 overexpressing cells/Empty vector cells” value in test [4] turned out to be 4.29.

With `Cn1c(CNc2cccc(C(=O)NC3(c4ccccc4)CCOCC3)c2)nnc1-c1ccncn1` [compound 8], the IC50 came out at 170 nM in test [1] and 140 nM in test [2]. For the same compound, the results for the GI50 in test [3] and in test [4] were greater than 30 µM and 22.7 µM, respectively.

`CCn1ncc(CNC(=O)c2cccc(NCc3nnc(-c4ccncn4)n3C)c2)c1F` [compound 15]: the IC50 in test [2] stood at 18 nM. The GI50 in test [3] came out at 4.01 µM. Further, in test [4], the GI50 was found to be 17.7 µM and the “Ratio GRK2 overexpressing cells/Empty vector cells” value was 4.42.

As to `Cc1cccnc1C(C)NC(=O)c1cccc(NCc2nnc(-c3ccncn3)n2C)c1` (stereo not shown) [compound 17], the IC50 in test [2] is 10 nM. Also, the GI50 in test [3] was found to be 2.11 µM; in test [4], 10.3 µM. In test [4], the “Ratio GRK2 overexpressing cells/Empty vector cells” value was 4.89.

In the case of `Cn1c(CNc2cccc(C(=O)NC3CCOc4c(Cl)cccc43)c2)nnc1-c1ccncn1` (stereo not shown) [compound 20], the IC50 in test [2] was 10 nM. Further, in test [3], the GI50 came to 1.03 µM. Besides, in test [4], the GI50 was 7.99 µM and the “Ratio GRK2 overexpressing cells/Empty vector cells” value was found to be 7.76.

As to `Cn1c(CNc2cccc(C(=O)N[C@H]3COc4ccccc43)c2)nnc1-c1ccncn1` [compound 26], the IC50 in test [2] was 9.8 nM. In addition, the GI50 in test [3] is 0.68 µM. In addition, in test [4], the GI50 stood at 4.18 µM and the “Ratio GRK2 overexpressing cells/Empty vector cells” value is listed as 6.15.

Consider `C[C@@H](NC(=O)c1cccc(NCc2nnc(-c3ccncn3)n2C)c1)c1ncccc1Cl` [compound 29], for which, in test [2], the half-maximal inhibitory concentration (IC50) was 12 nM. Further, the GI50 in test [3] is 1.24 µM. In test [4], the GI50 stood at 5.01 µM and the “Ratio GRK2 overexpressing cells/Empty vector cells” value turned out to be 4.04.

On to `COc1cccnc1CNC(=O)c1cccc(NCc2nnc(-c3ccncc3)[nH]2)c1` [compound 33], for which, in test [2], the IC50 was determined as 7.8 nM. Also, the GI50 in test [3] is 1.33 µM; in test [4] it was 17.7 µM. In addition, in test [4], the “Ratio GRK2 overexpressing cells/Empty vector cells” value is listed as 13.27.

In the case of `CCCn1c(CNc2cc(C(=O)NCc3ccccc3C(F)(F)F)ccn2)nnc1-c1ccncn1` [compound 35, 2-(((4-propyl-5-(pyrimidin-4-yl)-4H-1,2,4-triazol-3-yl)methyl)amino)-N-(2-(trifluoromethyl)benzyl)isonicotinamide], the IC50 in test [1] was 4.5 nM. For the same compound, the GI50 in test [3] was 1.3 µM. In test [4], the GI50 is 3.22 µM and the “Ratio GRK2 overexpressing cells/Empty vector cells” value was 2.49.
